{"source": "patent US10202361B2", "about": "“Pyridazinones as herbicides” (E I DU PONT DE NEMOURS AND COMPANY, priority 2014, dated 2019)", "format_in_all_cases": "in vivo", "key": {"[1]": {"system": "barnyardgrass (Echinochloa crus-galli)", "test": "Test B flooded paddy test", "details": "Echinochloa crus-galli, 312 h; Flood, 125 g ai/ha; scale of 0 to 100, 0 is no effect, 100 is complete control; 13 to 15 d; read-out: Plant response rating, Barnyardgrass", "outline": "(§1)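 Visual scores from 0 (no effect) to 100 (complete control) are relative to controls, assessed 13 to 15 d after treatment under greenhouse conditions. Treatment went into the paddy water of pots flooded 3 cm deep, with seedlings at the 2-leaf stage and flooding maintained.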"}, "[2]": {"system": "ducksalad (Heteranthera limosa)", "test": "Test B flooded paddy test", "details": "Heteranthera limosa, 312 h; Flood, 125 g ai/ha; scale of 0 to 100, 0 is no effect, 100 is complete control; 13 to 15 d; read-out: Plant response rating, Ducksalad", "outline": "as §1"}, "[3]": {"system": "corn (Zea mays)", "test": "Test C pre-/postemergence greenhouse herbicide test", "details": "Zea mays, pre-emergence, Corn, Preemergence, read-out: Plant response rating", "outline": "(§2)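 Plant response is scored on a 0–100 scale, where 100 means complete control, by visual comparison with controls 13 to 15 d after greenhouse treatment. Applications are made pre- and postemergence using a surfactant-containing, non-phytotoxic solvent formulation.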"}, "[4]": {"system": "foxtail, giant (giant foxtail, Setaria faberii)", "test": "Test C pre-/postemergence greenhouse herbicide test", "details": "Setaria faberi, pre-emergence, Foxtail, Giant, Preemergence, read-out: Plant response rating", "outline": "as §2"}, "[5]": {"system": "johnsongrass (Sorghum halepense)", "test": "Test C pre-/postemergence greenhouse herbicide test", "details": "Sorghum halepense, pre-emergence, Johnsongrass, Preemergence, read-out: Plant response rating", "outline": "as §2"}, "[6]": {"system": "lambsquarters (Chenopodium album)", "test": "Test C pre-/postemergence greenhouse herbicide test", "details": "Preemergence", "outline": "as §2"}, "[7]": {"system": "nutsedge, yellow (yellow nutsedge, Cyperus esculentus)", "test": "Test C pre-/postemergence greenhouse herbicide test", "details": "Cyperus, pre-emergence, Nutsedge, Yellow, Preemergence, read-out: Plant response rating", "outline": "as §2"}, "[8]": {"system": "oilseed rape (Brassica napus)", "test": "Test C pre-/postemergence greenhouse herbicide test", "details": "Oilseed Rape, Preemergence", "outline": "as §2"}, "[9]": {"system": "pigweed (Amaranthus retroflexus)", "test": "Test C pre-/postemergence greenhouse herbicide test", "details": "Amaranthus retroflexus, pre-emergence, Pigweed, Preemergence, read-out: Plant response rating", "outline": "as §2"}, "[10]": {"system": "soybean (Glycine max)", "test": "Test C pre-/postemergence greenhouse herbicide test", "details": "Glycine max, pre-emergence, Soybean, Preemergence, read-out: Plant response rating", "outline": "as §2"}, "[11]": {"system": "velvetleaf (Abutilon theophrasti)", "test": "Test C pre-/postemergence greenhouse herbicide test", "details": "Abutilon theophrasti, pre-emergence, Velvetleaf, Preemergence, read-out: Plant response rating", "outline": "as §2"}}}
{"smiles": "CCOc1cc(=O)n(-c2ccc(F)cc2)nc1Cc1ccnc(C(F)(F)F)c1", "note": "[Compound 25, 5-ethoxy-2-(4-fluorophenyl)-6-[[2-(trifluoromethyl)-4-pyridinyl]methyl]-3 (2H)-pyridazinone]", "values": [{"measurement": "pest or weed control at 125 g/ha", "setting": "[1]", "value": 0, "unit": "%"}, {"measurement": "pest or weed control at 125 g/ha", "setting": "[2]", "value": 0, "unit": "%"}, {"measurement": "plant injury at 31 g/ha", "setting": "[3]; 31 g ai/ha", "value": 10, "unit": "%"}, {"measurement": "plant injury at 62 g/ha", "setting": "[3]; 62 g ai/ha", "value": 30, "unit": "%"}, {"measurement": "plant injury at 125 g/ha", "setting": "[3]; 125 g ai/ha", "value": 35, "unit": "%"}, {"measurement": "plant injury at 250 g/ha", "setting": "[3]; 250 g ai/ha", "value": 45, "unit": "%"}, {"measurement": "pest or weed control at 31 g/ha", "setting": "[4]; 31 g ai/ha", "value": 100, "unit": "%"}, {"measurement": "pest or weed control at 62 g/ha", "setting": "[4]; 62 g ai/ha", "value": 100, "unit": "%"}, {"measurement": "pest or weed control at 125 g/ha", "setting": "[4]; 125 g ai/ha", "value": 100, "unit": "%"}, {"measurement": "pest or weed control at 250 g/ha", "setting": "[4]; 250 g ai/ha", "value": 100, "unit": "%"}, {"measurement": "pest or weed control at 31 g/ha", "setting": "[5]; 31 g ai/ha", "value": 65, "unit": "%"}, {"measurement": "pest or weed control at 62 g/ha", "setting": "[5]; 62 g ai/ha", "value": 75, "unit": "%"}, {"measurement": "pest or weed control at 125 g/ha", "setting": "[5]; 125 g ai/ha", "value": 90, "unit": "%"}, {"measurement": "pest or weed control at 250 g/ha", "setting": "[5]; 250 g ai/ha", "value": 98, "unit": "%"}, {"measurement": "Plant response rating", "setting": "[6]; 31 g ai/ha", "value": 100}, {"measurement": "Plant response rating", "setting": "[6]; 62 g ai/ha", "value": 100}, {"measurement": "Plant response rating", "setting": "[6]; 125 g ai/ha", "value": 100}, {"measurement": "Plant response rating", "setting": "[6]; 250 g ai/ha", "value": 100}, {"measurement": "pest or weed control at 31 g/ha", "setting": "[7]; 31 g ai/ha", "value": 10, "unit": "%"}, {"measurement": "pest or weed control at 62 g/ha", "setting": "[7]; 62 g ai/ha", "value": 5, "unit": "%"}, {"measurement": "pest or weed control at 125 g/ha", "setting": "[7]; 125 g ai/ha", "value": 15, "unit": "%"}, {"measurement": "pest or weed control at 250 g/ha", "setting": "[7]; 250 g ai/ha", "value": 45, "unit": "%"}, {"measurement": "Plant response rating", "setting": "[8]; 31 g ai/ha", "value": 50}, {"measurement": "Plant response rating", "setting": "[8]; 62 g ai/ha", "value": 95}, {"measurement": "Plant response rating", "setting": "[8]; 125 g ai/ha", "value": 95}, {"measurement": "Plant response rating", "setting": "[8]; 250 g ai/ha", "value": 95}, {"measurement": "pest or weed control at 31 g/ha", "setting": "[9]; 31 g ai/ha", "value": 100, "unit": "%"}, {"measurement": "pest or weed control at 62 g/ha", "setting": "[9]; 62 g ai/ha", "value": 100, "unit": "%"}, {"measurement": "pest or weed control at 125 g/ha", "setting": "[9]; 125 g ai/ha", "value": 98, "unit": "%"}, {"measurement": "pest or weed control at 250 g/ha", "setting": "[9]; 250 g ai/ha", "value": 100, "unit": "%"}, {"measurement": "plant injury at 62 g/ha", "setting": "[10]; 62 g ai/ha", "value": 20, "unit": "%"}, {"measurement": "plant injury at 125 g/ha", "setting": "[10]; 125 g ai/ha", "value": 35, "unit": "%"}, {"measurement": "plant injury at 250 g/ha", "setting": "[10]; 250 g ai/ha", "value": 65, "unit": "%"}, {"measurement": "pest or weed control at 62 g/ha", "setting": "[11]; 62 g ai/ha", "value": 100, "unit": "%"}, {"measurement": "pest or weed control at 125 g/ha", "setting": "[11]; 125 g ai/ha", "value": 70, "unit": "%"}, {"measurement": "pest or weed control at 250 g/ha", "setting": "[11]; 250 g ai/ha", "value": 95, "unit": "%"}]}
